Test system: not given
Assay: not given
Conditions: from C=CCCN1CCC[C@H]1C(=O)N[C@@H](Cc1ccc(OCC=C)c(Cl)c1)C(=O)OC; rcm bond; 16-membered ring; Grubbs II (0.3 eq)/pTsOH (2 eq, in AcOH); DCM; 2.64 mM; 50.0 °C

Row | Compound | ring closure, isolated yield [%]
1 | COC(=O)[C@@H]1Cc2ccc(c(Cl)c2)OC/C=C/CCN2CCCC2C(=O)N1 (stereo partly shown) | 87

Same assay, conditions: from C=CCOc1ccc(C[C@H](NC(=O)c2cc(Br)ccc2OCC=C)C(=O)NC2(C#N)CC2)cc1Cl; rcm bond; 16-membered ring; Grubbs II (0.3 eq); DCM; 2.15 mM; 50.0 °C

Row | Compound | ring closure, isolated yield [%]
2 | N#CC1(NC(=O)[C@@H]2Cc3ccc(c(Cl)c3)OCC=CCOc3ccc(Br)cc3C(=O)N2)CC1 | 53

Same assay, conditions: from C=CCOc1ccc(C[C@H](NC(=O)c2ccccc2OCC=C)C(=O)OC)cc1Cl; rcm bond; 16-membered ring; Grubbs II (0.3 eq); DCM; 2.76 mM; 50.0 °C

Row | Compound | ring closure, isolated yield [%]
3 | COC(=O)[C@@H]1Cc2ccc(c(Cl)c2)OC/C=C/COc2ccccc2C(=O)N1 | 47

Molecular target: Cathepsin L (Homo sapiens (Human), UniProt P07711)
Sequence (P07711 114-333): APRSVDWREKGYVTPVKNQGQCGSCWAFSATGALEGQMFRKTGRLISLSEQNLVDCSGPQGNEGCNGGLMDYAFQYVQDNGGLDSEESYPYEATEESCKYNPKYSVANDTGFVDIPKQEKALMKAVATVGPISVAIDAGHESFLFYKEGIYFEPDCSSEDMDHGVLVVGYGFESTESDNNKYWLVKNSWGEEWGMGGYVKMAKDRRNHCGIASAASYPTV
Assay: Cathepsin enzyme inhibition assay (fluorogenic peptide substrate Z-Val-Val-Arg-AMC)
Assay type: biochemical
Conditions: enzyme 1 nM, substrate 20 μM, pH 6.5
Method: Enzyme activity is measured by observing the increase in fluorescence intensity caused by cleavage of a peptide substrate containing a fluorophore whose emission is quenched in the intact peptide.
Assay buffer: 100 mM potassium phosphate pH 6.5, EDTA-Na 5 mM, Triton X-100 0.001%, DDT 5 mM.
Enzymes (all at 1 nM): human and mouse Cathepsin S, Cat K, Cat B, Cat L
Substrate (20 μM): Z-Val-Val-Arg-AMC, except for Cat K which uses Z-Leu-Arg-AMC (both from Bachem).
AMC=7-Amino-4-Methyl-Coumarin.
Excitation 360 nm, Emission 465 nm.
Enzyme is added to the substance dilutions in 96-well microtitre plates and the reaction is started with substrate. […] IC50 are calculated by standard methods. The results are expressed in μM in the following table.

Row | Compound | IC50 [nM]
4 | N#CC1(NC(=O)[C@@H]2Cc3ccc(c(Cl)c3)OCCCCOc3cc4c(cc3C(=O)N2)CCCC4)CC1 [Example 29, (12S)-22-chloro-N-(1-cyanocyclopropyl)-14-oxo-2,3,4,5,11,12,13,14,16,17,18,19-dodecahydro-7,10-ethenonaphtho[2,3-b][1,12,5]dioxazacyclohexadecine-12-carboxamide] | 13
5 | N#CC1(NC(=O)[C@@H]2Cc3ccc(c(I)c3)OCCCCOc3ccccc3C(=O)N2)CC1 [Example 30, (S)-19-Iodo-5-oxo-12,17-dioxa-4-aza-tricyclo[16.2.2.0*6,11*]docosa-1(21),6(11),7,9,18(22),19-hexaene-3-carboxylic acid (1-cyano-cyclopropyl)-amide] | 181
6 | N#CC1(NC(=O)[C@@H]2Cc3ccc(c(I)c3)OCCCCOc3ccc(Cl)cc3C(=O)N2)CC1 [Example 31, (S)-8-Chloro-19-iodo-5-oxo-12,17-dioxa-4-aza-tricyclo[16.2.2.0*6,11*]docosa-1(21),6(11),7,9,18(22),19-hexaene-3-carboxylic acid (1-cyano-cyclopropyl)-amide] | 12
7 | N#CC1(NC(=O)[C@@H]2Cc3ccc(c(Cl)c3)OC/C=C/COc3ccc(F)cc3C(=O)N2)CC1 [Example 32, (E)-(S)-19-Chloro-8-fluoro-5-oxo-12,17-dioxa-4-aza-tricyclo[16.2.2.0*6,11*]docosa-1(21),6,8,10,14,18(22),19-heptaene-3-carboxylic acid (1-cyano-cyclopropyl)-amide] | 16
8 | N#CC1(NC(=O)[C@@H]2Cc3ccc(c(Cl)c3)OC/C=C/COc3cc(Cl)ccc3C(=O)N2)CC1 [Example 33, (E)-(S)-9,19-Dichloro-5-oxo-12,17-dioxa-4-aza-tricyclo[16.2.2.0*6,11*]docosa-1(21),6,8,10,14,18(22),19-heptaene-3-carboxylic acid (1-cyano-cyclopropyl)-amide] | 73
9 | N#CC1(NC(=O)[C@@H]2Cc3ccc(c(Cl)c3)OC/C=C/COc3ccc(C(F)(F)F)cc3C(=O)N2)CC1 [Example 34, (E)-(S)-19-Chloro-5-oxo-8-trifluoromethyl-12,17-dioxa-4-aza-tricyclo[16.2.2.0*6,11*]docosa-1(21),6,8,10,14,18(22),19-heptaene-3-carboxylic acid (1-cyano-cyclopropyl)-amide] | 9
10 | N#CC1(NC(=O)[C@@H]2Cc3ccc(c(Cl)c3)OCCCCOc3ccc(F)cc3C(=O)N2)CC1 [Example 35, (S)-19-Chloro-8-fluoro-5-oxo-12,17-dioxa-4-aza-tricyclo[16.2.2.0*6,11*]docosa-1(21),6,8,10,18(22),19-hexaene-3-carboxylic acid (1-cyano-cyclopropyl)-amide] | 23
11 | N#CC1(NC(=O)[C@@H]2Cc3ccc(c(Cl)c3)OCCCCOc3cc(Cl)ccc3C(=O)N2)CC1 [Example 36, (S)-9,19-Dichloro-5-oxo-12,17-dioxa-4-aza-tricyclo[16.2.2.0*6,11*]docosa-1(21),6,8,10,18(22),19-hexaene-3-carboxylic acid (1-cyano-cyclopropyl)-amide] | 50
12 | N#CC1(NC(=O)[C@@H]2Cc3ccc(c(Cl)c3)OCCCCOc3ccc(C(F)(F)F)cc3C(=O)N2)CC1 [Example 37, (S)-19-Chloro-5-oxo-8-trifluoromethyl-12,17-dioxa-4-aza-tricyclo[16.2.2.0*6,11*]docosa-1(21),6,8,10,18(22),19-hexaene-3-carboxylic acid (1-cyano-cyclopropyl)-amide] | 9
13 | N#CC1(NC(=O)[C@@H]2Cc3ccc(c(Cl)c3)OC/C=C/CNc3ccc(Br)cc3C(=O)N2)CC1 [Example 38, (E)-(S)-8-Bromo-19-chloro-5-oxo-17-oxa-4,12-diaza-tricyclo[16.2.2.0*6,11*]docosa-1(21),6,8,10,14,18(22),19-heptaene-3-carboxylic acid (1-cyano-cyclopropyl)-amide] | 10
14 | CC(C)(C)OC(=O)N1CC(c2ccc3c(c2)C(=O)N[C@H](C(=O)NC2(C#N)CC2)Cc2ccc(c(Cl)c2)OC/C=C/CO3)C1 [Example 39, 3-[(E)-(S)-19-Chloro-3-(1-cyano-cyclopropylcarbamoyl)-5-oxo-12,17-dioxa-4-aza-tricyclo[16.2.2.0*6,11*]docosa-1(21),6,8,10,14,18(22),19-heptaen-8-yl]-azetidine-1-carboxylic acid tert-butyl ester] | 26.2
15 | N#CC1(NC(=O)[C@@H]2Cc3ccc(c(Cl)c3)OC/C=C/COc3ccc(C4CNC4)cc3C(=O)N2)CC1 [Example 41, (E)-(S)-8-Azetidin-3-yl-19-chloro-5-oxo-12,17-dioxa-4-aza-tricyclo[16.2.2.0*6,11*]docosa-1(21),6,8,10,14,18(22),19-heptaene-3-carboxylic acid (1-cyano-cyclopropyl)-amide] | 5.2
16 | CC(C)(C)OC(=O)N1CC(c2ccc3c(c2)C(=O)N[C@H](C(=O)NC2(C#N)CC2)Cc2ccc(c(Cl)c2)OCCCCO3)C1 [Example 42, 3-[(S)-19-Chloro-3-(1-cyano-cyclopropylcarbamoyl)-5-oxo-12,17-dioxa-4-aza-tricyclo[16.2.2.0*6,11*]docosa-1(21),6,8,10,18(22),19-hexaen-8-yl]-azetidine-1-carboxylic acid tert-butyl ester] | 25.5
17 | N#CC1(NC(=O)[C@@H]2Cc3ccc(c(Cl)c3)OCCCCOc3ccc(C4CNC4)cc3C(=O)N2)CC1 [Example 43, (S)-8-Azetidin-3-yl-19-chloro-5-oxo-12,17-dioxa-4-aza-tricyclo[16.2.2.0*6,11*]docosa-1(21),6,8,10,18(22),19-hexaene-3-carboxylic acid (1-cyano-cyclopropyl)-amide] | 3.1
18 | N#CC1(NC(=O)[C@@H]2Cc3ccc(c(Cl)c3)OC/C=C/COc3c(F)cc(F)cc3C(=O)N2)CC1 [Example 44, (E-Z)—(S)-19-Chloro-8,10-difluoro-5-oxo-12,17-dioxa-4-aza-tricyclo[16.2.2.0*6,11*]docosa-1(21),6,8,10,14,18(22),19-heptaene-3-carboxylic acid (1-cyano-cyclopropyl)-amide] | 9.2
19 | N#CC1(NC(=O)[C@@H]2Cc3ccc(c(Cl)c3)OC/C=C/COc3ccc(F)c(F)c3C(=O)N2)CC1 [Example 45, (E)-(S)-19-Chloro-7,8-difluoro-5-oxo-12,17-dioxa-4-aza-tricyclo[16.2.2.0*6,11*]docosa-1(21),6,8,10,14,18(22),19-heptaene-3-carboxylic acid (1-cyano-cyclopropyl)-amide] | 4.3
20 | N#CC1(NC(=O)[C@@H]2Cc3ccc(c(Cl)c3)OC/C=C\COc3ccc(F)c(F)c3C(=O)N2)CC1 [Example 46, (Z)—(S)-19-Chloro-7,8-difluoro-5-oxo-12,17-dioxa-4-aza-tricyclo[16.2.2.0*6,11*]docosa-1(21),6,8,10,14,18(22),19-heptaene-3-carboxylic acid (1-cyano-cyclopropyl)-amide] | 54
21 | CSc1ccc2c(c1)C(=O)N[C@H](C(=O)NC1(C#N)CC1)Cc1ccc(c(Cl)c1)OC/C=C/CO2 [Example 47, (E)-(S)-19-Chloro-8-methylsulfanyl-5-oxo-12,17-dioxa-4-aza-tricyclo[16.2.2.0*6,11*]docosa-1(21),6,8,10,14,18(22),19-heptaene-3-carboxylic acid (1-cyano-cyclopropyl)-amide] | 1.6
22 | N#CC1(NC(=O)[C@@H]2Cc3ccc(c(Cl)c3)OC/C=C/COc3c(Cl)cc(F)cc3C(=O)N2)CC1 [Example 48, (E)-(S)-10,19-Dichloro-8-fluoro-5-oxo-12,17-dioxa-4-aza-tricyclo[16.2.2.0*6,11*]docosa-1(21),6,8,10,14,18(22),19-heptaene-3-carboxylic acid (1-cyano-cyclopropyl)-amide] | 139
23 | N#Cc1ccc2c(c1)C(=O)N[C@H](C(=O)NC1(C#N)CC1)Cc1ccc(c(Cl)c1)OCCCCO2 [Example 49, (S)-19-Chloro-8-cyano-5-oxo-12,17-dioxa-4-aza-tricyclo[16.2.2.0*6,11*]docosa-1(21),6,8,10,18(22),19-hexaene-3-carboxylic acid (1-cyano-cyclopropyl)-amide] | 18.3
24 | N#CC1(NC(=O)[C@@H]2Cc3ccc(c(Cl)c3)OCCCCOc3ccc(F)c(F)c3C(=O)N2)CC1 [Example 50, (S)-19-Chloro-7,8-difluoro-5-oxo-12,17-dioxa-4-aza-tricyclo[16.2.2.0*6,11*]docosa-1(21),6,8,10,18(22),19-hexaene-3-carboxylic acid (1-cyano-cyclopropyl)-amide] | 13.5
25 | CSc1ccc2c(c1)C(=O)N[C@H](C(=O)NC1(C#N)CC1)Cc1ccc(c(Cl)c1)OCCCCO2 [Example 51, (S)-19-Chloro-8-methylsulfanyl-5-oxo-12,17-dioxa-4-aza-tricyclo[16.2.2.0*6,11*]docosa-1(21),6,8,10,18(22),19-hexaene-3-carboxylic acid (1-cyano-cyclopropyl)-amide] | 1.6

From patent US9290467B2, “Cyclic amides” (Hoffmann-La Roche Inc., priority 2012, dated 2016)
